From US8980879B2 (AbbVie Inc., priority 2013, dated 2015)
Marks after values point to notes of the source that are not given here.

Columns and labels:
[1] = tested on: LPS induced IL-6 production; test: LPS (lipopolysaccharide) induced IL-6 production mouse assay; assay type: in vivo, mice; settings: 3 mg/kg oral 1 h before LPS 2.5 mg/kg ip, serum IL-6 2 h after LPS, p<0.05
Protocol: LPS (Lipopolysaccharide) Induced IL-6 Production Mouse Assay
Compounds of the Examples listed in Table 2 were assayed for their ability to inhibit LPS (lipopolysaccharide) induced IL-6 (Interleukin-6) production in mice. Fox Chase SCID® female mice (Charles Rivers Labs, 5 per group) or CD1 female mice (5 mice per group) received an intraperitoneal challenge of lipopolysaccharide (2.5 mg/kg, L2630 E. coli 0111:B4) one hour after oral administration of compounds. Mice were euthanized 2 hours after lipopolysaccharide injection, blood was removed by cardiac puncture, and then the serum harvested from the blood samples was frozen at −80° C. On the day of the assay the serum samples were brought to room temperature and then diluted 1:20 in phosphate-buffered saline containing 2% bovine serum albumin. Interleukin-6 measurements were performed using a cytokine assay from Meso Scale Discovery (Gaithersburg, Md.) for mouse serum analysis according to the manufacturer's protocol and read on a SECTOR Imager 6000 (Meso Scale Discovery, Gaithersburg, Md.) instrument. Statistical analysis was performed using Prism software (version 5.0) incorporating Dunnett's one way ANOVA. The IL-6 mean and standard deviation of the group of vehicle treated animals were compared with the IL-6 mean and standard deviation of the group treated with drug. A p value <0.05 means that there is less than a 5% probability that the mean values in the two groups are equal.

[2] = tested on: breast cancer cell line MX-1; test: MX-1 cell line proliferation assay; assay type: cell-based; settings: Homo sapiens, MX1; MX-1 cells, 3-day (72 h) proliferation, Cell Titer Glo; read-out: Cellular proliferation: EC50
Protocol: MX-1 Cell Line Proliferation Assay
The impact of compounds of the Examples on cancer cell proliferation was determined using the breast cancer cell line MX-1 (ATCC) in a 3-day proliferation assay and the data are reported in Table 1. MX-1 cells were maintained in RPMI 1640 medium (Sigma) supplemented with 10% FBS at 37 C.° and an atmosphere of 5% CO2. For compound testing, MX-1 cells were plated in 96-well black bottom plates at a density of 5000 cells/well in 90 μL of culture media and incubated at 37° overnight to allow cell adhesion and spreading. Compound dilution series were prepared in DMSO via a 3-fold serial dilution from 3 mM to 0.1 μM. The DMSO dilution series were then diluted 1:100 in phosphate buffered saline, and 10 μL of the resulted solution were added to the appropriate wells of the MX-1 cell plate. The final compound concentrations in the wells were 3, 1, 0.3, 0.1, 0.03, 0.01, 0.003, 0.001, 0.0003 and 0.0001 μM.
Luminescence readings from the Cell Titer Glo assay were normalized to the DMSO treated cells and analyzed using the GraphPad Prism software with sigmoidal curve fitting to obtain EC50s. The minimum significant ratio (MSR) was determined to evaluate assay reproducibility (Eastwood et al., (2006) J Biomol Screen, 11: 253-261). The overall MSR was determined to be 2.1 and a moving MSR (last six run MSR overtime) has been <2.

[3] = target: T1, BRD4 (BDII_E352-M457) (Homo sapiens, UniProt O60885); test: TR-FRET bromodomain binding assay, BRD4 second bromodomain
T1 construct: protocol; made in house
Protocol: (§1) A time-resolved fluorescence resonance energy transfer (TR-FRET) assay was used to determine the affinities of compounds of the Examples listed in Table 1 for each bromodomain of BRD4. His-tagged first (BD1: amino acids K57-E168) and second (BD2: amino acids E352-E168) bromodomains of BRD4 were expressed and purified. An Alexa647-labeled BET-inhibitor was used as the fluorescent probe in the assay.
(§2) Compound dilution series were prepared in DMSO via an approximately 3-fold serial dilution from one of the following:
(§3) Assay method D: 500 μM-8.5 nM
(§4) Assay method E: 0.47 mM to 7.8 nM
(§5) Assay method F: 250 μM-4.2 nM
(§6) Assay method G: 0.047 mM to 0.78 nM
(§7) or 5-fold serial dilution from one of the following:
(§8) Assay method A: 2.5 mM-800 nM
(§9) Assay method B: 2.5 mM-797 nM
(§10) For Assay methods A, C, D, and F: Compounds were then diluted 6:100 in assay buffer (20 mM Sodium Phosphate, pH 6.0, 50 mM NaCl, 1 mM Ethylenediaminetetraacetic acid, 0.01% Triton X-100, 1 mM DL-Dithiothreitol) to yield 3× working solutions. Six microliters (μL) of the working solution was then transferred to white, low-volume assay plates (Costar #3673). A 1.5× assay mixture containing His-tagged bromodomain, Europium-conjugated anti-His antibody (Invitrogen PV5596) and the Alexa-647-conjugated probe molecule was also prepared. Twelve μL of this solution were added to the assay plate to reach a final volume of 18 μL.
(§11) For Assay methods B, E, and G: Compound dilutions were added directly into white, low-volume assay plates (Perkin Elmer Proxiplate 384 Plus#6008280) using a Labcyte Echo in conjunction with Labcyte Access and Thermo Multidrop CombinL robotics. Compounds were then suspended in eight microliters (μL) of assay buffer (20 mM Sodium Phosphate, pH 6.0, 50 mM NaCl, 1 mM Ethylenediaminetetraacetic acid disodium salt dihydrate, 0.01% Triton X-100, 1 mM DL-Dithiothreitol) containing His-tagged bromodomain, Europium-conjugated anti-His antibody (Invitrogen PV5596) and Alexa-647-conjugated probe.
(§12) The final concentration of 1× assay mixture for assay methods A, B, C, D, E, F, and G contains 2% DMSO, 8 nM His-tagged bromodomain, 1 nM Europium-conjugated anti-His-tag antibody and 100 nM or 30 nM probe (for BDI or BDII, respectively) and compound concentration in the range of: 50 μM-16 nM for method A, 49.02 μM-15.63 nM for method B, 25 μM-423 pM for method C, 10 μM-169 pM for method D, 9.19 μM 150 pM for method E, 5 μM-85 pM for method F, and 0.92 μM-15 pM for method G.
(§13) After a one-hour equilibration at room temperature, TR-FRET ratios were determined using an Envision multilabel plate reader (Ex 340, Em 495/520).
(§14) TR-FRET data were normalized to the means of 24 no-compound controls (“high”) and 8 controls containing 1 μM un-labeled probe (“low”). Percent inhibition was plotted as a function of compound concentration and the data were fit with the 4 parameter logistic equation to obtain IC50s Inhibition constants (Ki) were calculated from the IC50s, probe Kd and probe concentration. Typical Z′ values were between 0.65 and 0.75. The minimum significant ratio was determined to evaluate assay reproducibility (Eastwood et al., (2006) J Biomol Screen, 11: 253-261). The MSR was determined to be 2.03 for BDI and 1.93 for BDII, and a moving MSR (last six run MSR overtime) for both BDI and BDII was typically <3.

[4] = target: T2, BRD4 (BDI_K57-E168) (Homo sapiens, UniProt O60885); test: TR-FRET bromodomain binding assay, BRD4 first bromodomain; settings: His-tagged BD1, 100 nM Alexa647 probe; assay protocol D or F as given per row in c1; Ki calculated from IC50
T2 construct: BD1: amino acids K57-E168; made in house
Protocol: as §1, §2, §3, §4, §5, §6, §7, §8, §9, §10, §11, §12, §13, §14

[5] = tested on: OPM-2 human multiple myeloma cancer xenograft; test: Xenograft tumor growth inhibition assay (OPM-2); assay type: in vivo, mice; settings: for % TGI: QDx21, female SCID-beige mice; for % removed from study: QDx21, removed due to morbidity or weight loss in excess of 20%
Protocol: Xenograft Tumor Growth Inhibition Assay
The effect of compounds of the examples to inhibit the growth of OPM-2 xenograft tumors implanted in mice was evaluated. A suspension of cancer cells (5×10^6 per 0.1 mL) prepared in RPMI culture medium (Invitrogen, Carlsbad, Calif.) was diluted 1:1 with a solution of Matrigel™ (BD Biosciences, Franklin Lakes, N.J.) and inoculated subcutaneously into the right hind flank of female SCID-beige (Charles River Labs) mice. […] Administration of compound or vehicle was initiated on the day following randomization and continued for 21 days. Tumors were measured twice a week throughout the treatment period using a pair of calipers and tumor volumes were calculated according to the formula V=L×W^2/2 (V: volume, mm^3; L: length, mm. W: width, […]) Tumor growth inhibition was calculated based on the mean tumor volume measured on the first day that the mean volume of the vehicle group exceeded 2000 mm^3 according to the formula % TGI=100−mean tumor volume of treatment group/mean tumor volume of control group×100.

EC50 [2] [nM] | Ki [3] [nM] | Ki [4] [nM] | Structure (SMILES) | other results
16.8 | 23.2 | 1.34 | CN1CCN(CC(=O)Nc2ccc3c(c2)-c2cn(C)c4c(=O)[nH]cc(c24)CN3c2ccc(F)cc2)CC1 [Example 36] | % inhibition at 3 mg/kg (LPS induced IL-6 production) ([1]; CD1 female mice): 68%
10.1 | 4.41 | 2.56 | CC(=O)Nc1cnc2c(c1)-c1cn(C)c3c(=O)[nH]cc(c13)CN2c1ccc(Cl)cc1 [Example 72] | % inhibition at 3 mg/kg (LPS induced IL-6 production) ([1]; CD1 female mice): 63%
24.4 | 0.708 | 0.79 | CCS(=O)(=O)Nc1cnc2c(c1)-c1cn(C)c3c(=O)[nH]cc(c13)CN2c1ccc(Cl)cc1 [Example 70] | 
63.3 | 12.7 | 1.83 | Cn1cc2c3c(c[nH]c(=O)c31)CN(c1ccc(F)cc1)c1ccc(C(=O)NCc3cc(F)ccc3Br)cc1-2 [Example 58] | 
49.9 | 22 | 1.98 | Cn1cc2c3c(c[nH]c(=O)c31)CN(c1ccc(F)cc1)c1ccc(C(=O)NCc3ccccc3)cc1-2 [Example 63] | 
65.6 | 33.1 | 1.62 | Cn1cc2c3c(c[nH]c(=O)c31)CN(c1ccc(F)cc1)c1ccc(C(=O)NCc3cnn(Cc4ccccc4)c3)cc1-2 [Example 62] | 

Further lines, the compound ahead of its results:

Structure (SMILES) | EC50 [2] [nM] | Ki [3] [nM] | Ki [4] [nM] | other results
Cn1cc2c3c(c[nH]c(=O)c31)CN(c1ccc(F)cc1F)c1ccc(CS(C)(=O)=O)cc1-2 [Example 5] | 3.95 | 1.95 | 1.76 | % inhibition at 3 mg/kg (LPS induced IL-6 production) ([1]; SCID female mice): 71%; % TGI ([5]; 2.5 mg/kg PO): 66*** %; % removed from study ([5]; 2.5 mg/kg PO): 0%; % TGI ([5]; 5.0 mg/kg PO): 81*** %; % removed from study ([5]; 5.0 mg/kg PO): 44%
Cn1cc2c3c(c[nH]c(=O)c31)CN(c1ccc(F)cc1)c1ccc(CS(C)(=O)=O)cc1-2 [Example 4] | 1.39 | 2.15 | 0.61 | % inhibition at 3 mg/kg (LPS induced IL-6 production) ([1]; SCID female mice): 70%; % TGI ([5]; 3.75 mg/kg PO): 68*** %; % removed from study ([5]; 3.75 mg/kg PO): 11%; % TGI ([5]; 7.5 mg/kg PO): 84*** %; % removed from study ([5]; 7.5 mg/kg PO): 44%
Cn1cc2c3c(c[nH]c(=O)c31)CN(c1ccc(F)cc1)c1ccc(Cl)cc1-2 [Example 13] | 72 | 34.1 | 2.74 | 
Cn1cc2c3c(c[nH]c(=O)c31)CN(c1ccc(F)cc1)c1ncc(NC(=O)Cc3ccc(Cl)cc3F)cc1-2 [Example 20] | 36.5 | 4.69 | 1.76 | 
Cn1cc2c3c(c[nH]c(=O)c31)CN(c1ccc(F)cc1)c1ncc(F)cc1-2 [Example 16] | 5.55 | 5.07 | 0.79 | 
